Measured values as given in paper PMC6081437, “The potency of the broad spectrum bacteriocin, bactofencin A, against staphylococci is highly dependent on primary structure, N-terminal charge and disulphide formation” (Scientific Reports, 2018).
Like-named read-outs stand apart in the source and are kept apart here. Bridge positions count the residues as written; N and C are the ends. Peptide text beside a SMILES is read from it.

Key:
[1] = tested on: Listeria spp.; conditions: cell free supernatants of L plantarum ST31 against L. innocua and L. monocytogenes; cited from earlier work
From the text: Todorov et al. (1999) previously described plantaricin ST31, a bacteriocin with an amino acid sequence determined to be KRKKHRXQVYNNGMPTGMYR, produced by a sourdough isolate Lactobacillus plantarum ST31, with a reported mass of 2755 + /− 0.3 Da[20]. Substitution of Cys for X results in a peptide with a mass of 2468 Da. However if tryptophan and cysteine, the C terminal amino acids of bactofencin A are included, a mass of 2757 Da is obtained and subsequent oxidation of cysteines gives the published mass, 2755 Da.

[2] = tested on: L. monocytogenes ATCC 23074; assay type: cell-based, Listeria monocytogenes
Description: (§1) Peptides were resuspended at 1000 µM in 50 mM sodium phosphate buffer pH 6.8 and checked for purity by MALDI-TOF-MS. Peptides were serially diluted 1 in 4 to give a dilution series of 250, 62.50, 15.63, 3.91, 0.98 and 0.24 µM and assayed by the agar well diffusion assay described by Ryan et al.[19]. Briefly, 50 µl aliquots of each peptide concentration were plated on a S. aureus DPC5246 indicator plate and the plate incubated at 37 °C. Peptide activity (Minimum Inhibitory Concentration (MIC)) was taken as the lowest concentration of peptide to give a zone of inhibition. All assays were performed in triplicate. The dilution series values were rounded to the nearest whole number to give 1000, 250, 63, 16, 4, 1 and 0.25 µM and data is colour coded for ease of interpretation.
(§2) Bactofencin R8Q and bactofencin R8K were synthesised as described above and their activity compared to bactofencin A against S. aureus DPC5246, Listeria innocua DPC3572 and L. monocytogenes ATCC 23074.

[3] = tested on: S. aureus DPC5246; assay type: cell-based, Staphylococcus aureus
Outline: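 Agar well diffusion assay: peptides in 50 mM sodium phosphate pH 6.8, 1-in-4 dilutions from 1000 µM stock (250 to 0.24 µM) applied to S. aureus DPC5246 indicator plates at 37 °C. MIC is the lowest concentration giving an inhibition zone, in triplicate; concentrations rounded to whole numbers.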

[4] = tested on: Listeria innocua DPC3572; assay type: cell-based
Description: as §1, §2

Molecule: KRKKHRXQVYNNGMPTGMYR [plantaricin ST31, bacteriocin produced by sourdough isolate Lactobacillus plantarum ST31 (Todorov et al. 1999); likely natural R8Q variant of bactofencin A]
- activity against Listeria spp., in words [1]: inactive

Molecule: CSCC[C@@H]1NC(=O)CNC(=O)[C@H]([C@@H](C)O)NC(=O)[C@@H]2CCCN2C(=O)[C@H](CCSC)NC(=O)CNC(=O)[C@H](CC(N)=O)NC(=O)[C@H](CC(N)=O)NC(=O)[C@H](Cc2ccc(O)cc2)NC(=O)[C@H](C(C)C)NC(=O)[C@H](CCC(N)=O)NC(=O)[C@@H](NC(=O)[C@H](CCCNC(=N)N)NC(=O)[C@H](Cc2c[nH]cn2)NC(=O)[C@H](CCCCN)NC(=O)[C@H](CCCCN)NC(=O)[C@H](CCCNC(=N)N)NC(=O)[C@@H](N)CCCCN)CSSC[C@@H](C(=O)O)NC(=O)[C@H](Cc2c[nH]c3ccccc23)NC(=O)[C@H](CCCNC(=N)N)NC(=O)[C@H](Cc2ccc(O)cc2)NC1=O [bactofencin R8Q] (H-KRKKHRCQVYNNGMPTGMYRWC-OH; disulfide 7-22; N-terminus assumed)
- Activity (MIC) ([2]; L. monocytogenes ATCC 23074, agar well diffusion): 250 µM
- Activity (Minimum Inhibitory Concentration, MIC) ([3]; agar well diffusion, 50 µl aliquots of 1 in 4 serial dilutions from 1000 µM in 50 mM sodium phosphate buffer pH 6.8, 37 °C, lowest concentration giving a zone of inhibition, triplicate, values rounded to whole numbers): 1 µM
- Activity (MIC) ([4]; L. innocua DPC3572, agar well diffusion): 250 µM

Molecule: CSCC[C@@H]1NC(=O)CNC(=O)[C@H]([C@@H](C)O)NC(=O)[C@@H]2CCCN2C(=O)[C@H](CCSC)NC(=O)CNC(=O)[C@H](CC(N)=O)NC(=O)[C@H](CC(N)=O)NC(=O)[C@H](Cc2ccc(O)cc2)NC(=O)[C@H](C(C)C)NC(=O)[C@H](CCCNC(=N)N)NC(=O)[C@@H](NC(=O)[C@H](CCCNC(=N)N)NC(=O)[C@H](Cc2c[nH]cn2)NC(=O)[C@H](CCCCN)NC(=O)[C@H](CCCCN)NC(=O)[C@H](CCCNC(=N)N)NC(=O)[C@@H](N)CCCCN)CSSC[C@@H](C(=O)O)NC(=O)[C@H](Cc2c[nH]c3ccccc23)NC(=O)[C@H](CCCNC(=N)N)NC(=O)[C@H](Cc2ccc(O)cc2)NC1=O [bactofencin A] (H-KRKKHRCRVYNNGMPTGMYRWC-OH; disulfide 7-22)
- Activity (MIC) ([2]; ATCC 23074): 63 µM
- Activity (Minimum Inhibitory Concentration, MIC) ([3]; DPC5246, pH 6.8): 1 µM
- Activity (MIC) [4]: 63 µM

Molecule: CSCC[C@@H]1NC(=O)CNC(=O)[C@H]([C@@H](C)O)NC(=O)[C@@H]2CCCN2C(=O)[C@H](CCSC)NC(=O)CNC(=O)[C@H](CC(N)=O)NC(=O)[C@H](CC(N)=O)NC(=O)[C@H](Cc2ccc(O)cc2)NC(=O)[C@H](C(C)C)NC(=O)[C@H](CCCNC(=N)N)NC(=O)[C@@H](NC(=O)[C@H](CCCNC(=N)N)NC(=O)[C@H](Cc2c[nH]cn2)NC(=O)[C@H](CCCCN)NC(=O)[C@H](CCCCN)NC(=O)[C@H](C)NC(=O)[C@@H](N)CCCCN)CSSC[C@@H](C(=O)O)NC(=O)[C@H](Cc2c[nH]c3ccccc23)NC(=O)[C@H](CCCNC(=N)N)NC(=O)[C@H](Cc2ccc(O)cc2)NC1=O [R2A] (H-KAKKHRCRVYNNGMPTGMYRWC-OH; disulfide 7-22)
- Activity (Minimum Inhibitory Concentration, MIC) ([3]; DPC5246, pH 6.8): 1 µM
